Data from patent US20240366584A1, “COMBINATION TREATMENT OF CANCER WITH A PARP INHIBITOR AND A LIPOPHILIC STATIN” (TESARO, INC., priority 2021, published 2024).
Where two headings read alike, the source gives them in different places.

Assays:
[1] = cited from earlier work
[2] = system: participants with advanced ovarian cancer; assay: post-hoc analysis of the PRIMA clinical trial (progression free survival); assay type: in vivo, human; settings: post hoc subgroups, Kaplan-Meier
Excerpt: This example describes a post-hoc analysis of the PRIMA clinical trial.
This was an exploratory post hoc analysis.
For the subgroup analyses, we performed a two-sided log-rank test using randomization stratification factors (best response to last platinum; HRD status; and time from penultimate platinum to progression) to analyze PFS (progression free survival), which was summarized with the use of Kaplan-Meier methods. We estimated hazard ratios with two-sided 95% Confidence Intervals (CIs) using a stratified Cox proportional hazards (PH) model, with the stratification factors used in randomization.
The Cox model for interaction testing also included stratification factors used in randomization as covariates.

[3] = pH 7.0, Shitara et al., Pharmacology & Therapeutics, 2006
[4] = pH 7.4, Matre et al., Vascular Health and Risk Management, 2016

| SMILES | log D [1, 3] | log D [1, 4] | mPFS [2] [months] | log D ([1]; pH 7.4, Shitara et al., Pharmacology & Therapeutics, 2006) |
| --- | --- | --- | --- | --- |
| CC(C)n1c(/C=C/C(O)CC(O)CC(=O)O)c(-c2ccc(F)cc2)c2ccccc21 (stereo not drawn) [fluvastatin] | 1.75 | 1.75 |  |  |
| CC[C@H](C)C(=O)O[C@H]1C[C@@H](C)C=C2C=C[C@H](C)[C@H](CC[C@@H]3C[C@@H](O)CC(=O)O3)[C@H]21 [lovastatin] | 3.91 | 2.59 |  |  |
| NC(=O)c1cccc2cn(-c3ccc([C@@H]4CCCNC4)cc3)nc12 [niraparib] |  |  | 13.7 |  |
| O=C(O)C[C@H](O)C[C@H](O)/C=C/c1c(C2CC2)nc2ccccc2c1-c1ccc(F)cc1 [pitavastatin] | 1.50 | 1.50 |  |  |
| CC[C@H](C)C(=O)O[C@H]1C[C@H](O)C=C2C=C[C@H](C)[C@H](CC[C@@H](O)C[C@@H](O)CC(=O)O)[C@H]21 [pravastatin] | −0.47 |  |  |  |
| CC(C)c1nc(N(C)S(C)(=O)=O)nc(-c2ccc(F)cc2)c1/C=C/[C@@H](O)C[C@@H](O)CC(=O)O [rosuvastatin] |  |  |  | −0.25 to −0.50 |
